For 12 molecules, MIC results are on record in DBAASP.

Some test systems named below: Escherichia coli; Pseudomonas aeruginosa; Staphylococcus aureus MR; Staphylococcus aureus; Acinetobacter baumannii; Bacillus subtilis 168; Escherichia coli B; Bacillus subtilis; Escherichia coli UB1005.
Holding throughout (assay): ≥ marks a high value that may be exact or a test limit, other limits are often not marked, values filed in µg/mL are converted to µM
In experiment [1] the test system is Escherichia coli ATCC 25922.
In experiment [2] the test system is Klebsiella pneumoniae ATCC 700603.
Experiment [3] relates to Pseudomonas aeruginosa ATCC 9027.
Experiment [4] concerns Staphylococcus aureus ATCC 25923.
In experiment [5] the test system is Candida albicans ATCC 2002.
Experiment [6] relates to Staphylococcus aureus ATCC 2592.
Experiment [7] deals with Pseudomonas aeruginosa CMCCB 10104.
Experiment [8] concerns Salmonella enterica subsp. enterica serovar Typhimurium C77-31.
For experiment [9], the system named is Staphylococcus aureus ATCC 29213.
Experiment [10] deals with Staphylococcus epidermidis ATCC 12228.

Structures are written as SMILES. ≈ marks a conversion by molar mass, not a printed value.

As for `CC[C@H](C)[C@H](NC(=O)[C@H](C)NC(=O)[C@H](CC(C)C)NC(=O)[C@H](CC(C)C)NC(=O)[C@H](CC(C)C)NC(=O)[C@H](C)N)C(=O)N[C@@H](CCCN=C(N)N)C(=O)N[C@@H](CCCCN)C(=O)N[C@@H](CCCN=C(N)N)C(N)=O` [ALLLAIRKR], the MIC (as a rule, the lowest concentration found to suppress growth) in the experiment on Escherichia coli is 5.7 µM (≈ 5.99 µg/mL); against Pseudomonas aeruginosa it was 3.8 µM (≈ 4 µg/mL); against Staphylococcus aureus MR, at least 38 µM; in the experiment with Staphylococcus aureus, 3.8 µM (≈ 4 µg/mL).

With `CC[C@H](C)[C@H](NC(=O)[C@H](Cc1ccccc1)NC(=O)[C@H](CO)NC(=O)[C@H](CCCCN)NC(=O)[C@H](CC(C)C)NC(=O)[C@H](CCCCN)NC(=O)[C@H](CCCCN)NC(=O)[C@H](CC(C)C)NC(=O)[C@@H](NC(=O)[C@@H](NC(=O)[C@@H](N)Cc1ccccc1)[C@@H](C)O)[C@@H](C)CC)C(=O)N[C@@H](CCCCN)C(=O)O` [FTILKKLKSFIK], the MIC with Acinetobacter baumannii was at least 64 µM; in experiment [1], over 64 µM; in experiment [2], over 64 µM; in experiment [3], 32 µM (≈ 46.9 µg/mL); in [4] it was over 64 µM.

Consider `CC[C@H](C)[C@H](NC(=O)[C@H](CC(C)C)NC(=O)[C@H](CCCCN)NC(=O)CNC(=O)[C@H](CC(C)C)NC(=O)[C@@H](NC(=O)[C@H](CCCCN)NC(=O)[C@H](CO)NC(=O)[C@H](Cc1c[nH]c2ccccc12)NC(=O)[C@H](CCCCN)NC(=O)CN)[C@@H](C)CC)C(=O)N[C@@H](CCCN=C(N)N)C(N)=O` [GKWSKILGKLIR], for which the MIC with Bacillus subtilis 168 amounted to 1.7 µM (≈ 2.38 µg/mL); with Escherichia coli B it was 2.3 µM (≈ 3.21 µg/mL); against Pseudomonas aeruginosa, 28.3 µM (≈ 39.6 µg/mL); against Staphylococcus aureus it was 21.7 µM (≈ 30.3 µg/mL).

With `CC[C@H](C)[C@@H]1NC(=O)[C@H](CCCCN)NC(=O)[C@@H](NC(=O)[C@H](CCCCN)NC(=O)[C@H](CC(C)C)NC(=O)[C@@H](NC(=O)[C@H](CC(=O)O)NC(=O)[C@H](CC(C)C)NC(=O)[C@H](CC(C)C)NC(=O)[C@H](CCC(N)=O)NC(=O)CNC(=O)[C@H](C)NC(=O)[C@@H](NC(=O)[C@H](CCCCN)NC(=O)[C@H](CCCCN)NC(=O)[C@H](CC(C)C)NC(=O)CNC(=O)[C@H](CCC(=O)O)NC(=O)[C@H](CCCCN)NC(=O)[C@@H](NC(=O)[C@H](CO)NC(=O)[C@H](CC(=O)O)NC(=O)[C@H](CC(C)C)NC(=O)[C@H](CC(C)C)NC(=O)CN)C(C)C)C(C)C)[C@@H](C)O)CSSC[C@@H](C(=O)N[C@H](C(=O)N2CCC[C@H]2C(=O)N[C@@H](C)C(=O)O)[C@@H](C)O)NC(=O)CNC(=O)[C@H](CO)NC1=O` [GLLDSVKEGLKKVAGQLLDTLKCKISGCTPA], the MIC against Bacillus subtilis came out at 7.84 µM (≈ 25 µg/mL); in experiment [5], 3.92 µM (≈ 12.5 µg/mL); in experiment [1], 1.98 µM (≈ 6.3 µg/mL); in experiment [6] it was 1.98 µM (≈ 6.3 µg/mL).

For the molecule `CC[C@H](C)[C@H](N)C(=O)N1CCC[C@H]1C(=O)N[C@@H](CC(C)C)C(=O)N[C@@H](CC(C)C)C(=O)N[C@@H](CCCN=C(N)N)C(=O)N[C@@H](CCCCN)C(=O)NCC(=O)N[C@@H](CCCCN)C(=O)N[C@@H](CCCCN)C(=O)N[C@H](C(=O)N[C@H](C(=O)N[C@@H](Cc1c[nH]c2ccccc12)C(=O)N[C@@H](Cc1c[nH]c2ccccc12)C(=O)O)[C@@H](C)CC)[C@@H](C)CC` [IPLLRKGKKIIWW], the MIC in the experiment with Acinetobacter baumannii was at least 64 µM; in experiment [1] it was over 64 µM; in experiment [2], over 64 µM; in experiment [3], 64 µM (≈ 106 µg/mL); in [4] it was over 64 µM.

Consider `CC(C)C[C@@H]1NC(=O)[C@H](CCCCN)NC(=O)[C@H](CC(=O)O)NC(=O)[C@H](CC(N)=O)NC(=O)[C@H](Cc2ccc(O)cc2)NC(=O)[C@@H](NC(=O)[C@H](CCCCN)NC(=O)[C@@H]2CCCN2C(=O)[C@H](C)NC(=O)[C@H](CCCCN)NC(=O)[C@H](CS)NC(=O)[C@H](CCCCN)NC(=O)[C@H](CC(C)C)NC(=O)[C@H](CCCCN)NC(=O)[C@H](CC(C)C)NC(=O)[C@H](CCCCN)NC(=O)[C@H](CCC(=O)O)NC(=O)[C@@H](N)CCCCN)CSSC[C@@H](C(=O)N[C@H](C(=O)O)[C@@H](C)O)NC(=O)[C@H](C)NC1=O` [KEKLKLKCKAPKCYNDKLACT], for which the MIC was at least 82.4 µM in experiment [5], over 82.4 µM in [1], at least 82.4 µM in experiment [7] and over 82.4 µM in experiment [4].

For `CC[C@H](C)[C@H](NC(=O)[C@H](CCC(N)=O)NC(=O)[C@H](CCCCN)NC(=O)CNC(=O)[C@H](CC(C)C)NC(=O)[C@H](CCC(N)=O)NC(=O)[C@@H]1CCCN1C(=O)[C@H](CC(C)C)NC(=O)[C@H](CCCCN)NC(=O)[C@H](C)NC(=O)[C@H](CCC(=O)O)NC(=O)[C@H](CCCCN)NC(=O)[C@@H](NC(=O)[C@H](CCSC)NC(=O)[C@@H](NC(=O)[C@@H](NC(=O)[C@@H](NC(=O)[C@@H](N)CO)[C@@H](C)CC)[C@@H](C)CC)[C@@H](C)O)[C@@H](C)O)C(=O)N[C@@H](C)C(=O)N[C@H]1CSSC[C@@H](C(=O)O)NC(=O)[C@H]([C@@H](C)O)NC(=O)[C@H](CC(N)=O)NC(=O)[C@H](Cc2ccc(O)cc2)NC(=O)[C@H](CC(C)C)NC(=O)[C@H](CCCN=C(N)N)NC1=O` [SIITMTKEAKLPQLGKQIACRLYNTC], the MIC in the experiment on Bacillus subtilis is at least 41 µM; in experiment [5], 20.5 µM (≈ 60 µg/mL); in experiment [1] it was 41 µM (≈ 120 µg/mL); in experiment [6], 10.3 µM (≈ 30 µg/mL).

As to `CC[C@H](C)[C@H](NC(=O)[C@@H]1CCCN1C(=O)[C@@H](NC(=O)[C@@H](N)C(C)C)[C@@H](C)CC)C(=O)N[C@H](C(=O)N[C@@H](CO)C(=O)NCC(=O)N[C@@H](CC(C)C)C(=O)N[C@@H](CC(C)C)C(=O)N[C@@H](CO)C(=O)N[C@@H](CO)C(=O)N[C@@H](CC(C)C)C(=O)N[C@@H](CC(C)C)C(N)=O)C(C)C` [VIPIVSGLLSSLL], the MIC was 9.54 µM (≈ 12.5 µg/mL) in [1] and 4.77 µM (≈ 6.25 µg/mL) in [6].

As for `CC[C@H](C)[C@H](NC(=O)[C@H](CCCCN)NC(=O)[C@H](CCCCN)NC(=O)[C@H](Cc1c[nH]c2ccccc12)NC(=O)[C@H](CC(N)=O)NC(=O)[C@@H](N)C(C)C)C(=O)N[C@@H](CC(C)C)C(=O)N1CCC[C@H]1C(=O)N[C@@H](CCCCN)C(=O)N[C@H](C(=O)N[C@H](C(=O)N[C@@H](CCCCN)C(=O)N[C@H](C(=O)N[C@@H](C)C(=O)N[C@@H](CCCCN)C(N)=O)C(C)C)[C@@H](C)CC)[C@@H](C)CC` [VNWKKILPKIIKVAK], the MIC was determined as 0.7 µM (≈ 1.24 µg/mL) in the experiment with Bacillus subtilis 168, 2.5 µM (≈ 4.44 µg/mL) against Escherichia coli B, 100 µM (≈ 178 µg/mL) in the experiment with Pseudomonas aeruginosa and 80 µM (≈ 142 µg/mL) with Staphylococcus aureus.

`CC[C@H](C)[C@H](NC(=O)[C@H](CCCCN)NC(=O)[C@H](C)NC(=O)[C@H](CC(C)C)NC(=O)[C@@H](NC(=O)[C@H](CCCCN)NC(=O)[C@H](CCCCN)NC(=O)[C@H](Cc1c[nH]c2ccccc12)NC(=O)[C@H](CC(N)=O)NC(=O)[C@@H](N)C(C)C)C(C)C)C(=O)N[C@H](C(=O)N[C@@H](CCCCN)C(=O)N[C@H](C(=O)N[C@@H](C)C(=O)N[C@@H](CCCCN)C(N)=O)C(C)C)[C@@H](C)CC` [VNWKKVLAKIIKVAK]: the MIC was 0.6 µM (≈ 1.04 µg/mL) in the experiment on Bacillus subtilis 168, 0.7 µM (≈ 1.22 µg/mL) with Escherichia coli B, 26.9 µM (≈ 46.7 µg/mL) in the experiment on Pseudomonas aeruginosa and 7.2 µM (≈ 12.5 µg/mL) with Staphylococcus aureus.

For `CC(C)[C@H](N)C(=O)N[C@H](C(=O)N[C@@H](CCCCN)C(=O)N[C@@H](Cc1ccccc1)C(=O)N[C@@H](CO)C(=O)N[C@@H](Cc1ccc(O)cc1)C(=O)N[C@@H](CCCN=C(N)N)C(=O)N[C@@H](CCCCN)C(=O)NCC(=O)N[C@@H](CO)C(=O)N1CCC[C@H]1C(=O)N[C@@H](C)C(=O)N1CCC[C@H]1C(=O)N[C@@H](CCC(N)=O)C(=O)N[C@@H](CCCCN)C(=O)N[C@@H](CC(N)=O)C(=O)O)C(C)C` [VVKFSYRKGSPAPQKN], the minimal inhibitory concentration (MIC) was at least 111 µM in experiment [5], over 111 µM in experiment [1], at least 111 µM in experiment [7] and over 111 µM in experiment [4].

For the molecule `CC[C@H](C)[C@H](NC(=O)[C@H](CCCN=C(N)N)NC(=O)[C@H](Cc1c[nH]c2ccccc12)NC(=O)[C@H](CCCN=C(N)N)NC(=O)[C@@H](NC(=O)[C@H](CCCCN)NC(=O)[C@H](Cc1c[nH]c2ccccc12)NC(=O)[C@H](CCCN=C(N)N)NC(=O)[C@@H](NC(=O)[C@H](CCCN=C(N)N)NC(=O)[C@@H](N)Cc1c[nH]c2ccccc12)[C@@H](C)CC)[C@@H](C)O)C(=O)N[C@@H](CCCCN)C(N)=O` [WRIRWKTRWRIK], the MIC came to 2 µM (≈ 3.57 µg/mL) against Acinetobacter baumannii; 4 µM (≈ 7.14 µg/mL) in [1]; 2 µM (≈ 3.57 µg/mL) in the experiment with Escherichia coli UB1005; 2 µM (≈ 3.57 µg/mL) against Escherichia coli; 8 µM (≈ 14.3 µg/mL) in the experiment on Pseudomonas aeruginosa; 2 µM (≈ 3.57 µg/mL) in [8]. The MIC (in experiment [4]; in [9]; against Staphylococcus aureus; in experiment [10]) was 2 µM (≈ 3.57 µg/mL) throughout.
